# Measurements from patent US9315463B2, “Cyclohexylamine derivatives having β2 adrenergic agonist and M3 muscarinic antagonist activities” (Almirall, S.A., priority 2010, dated 2016).
# Like-named read-outs stand apart in the source and are kept apart here.
# Key:
# [1] = biological target: human adrenergic beta2 receptor (Homo sapiens (Human), UniProt P07550); test: Human adrenergic β2 receptor binding assay (3H-CGP12177, Sf9 membranes)
# Procedure: Test 1: Human Adrenergic β1 and β2 Receptor Binding Assays
# The study of binding to human adrenergic beta1 and beta2 receptors was performed using commercial membranes prepared from Sf9 cells where they are overexpressed (Perkin Elmer). The membrane suspensions (16 μg/well for beta1 and 5 μg/well for beta2) in assay buffer (75 mM Tris/HCl with 12.5 mM MgCl2 and 2 mM EDTA pH=7.4) were incubated with 0.14 or 0.6 nM of 3H-CGP12177 (Amersham) for beta 1 and beta 2 receptors respectively in a final volume of 250 μl, in GFC Multiscreen 96 well plates (Millipore) previously treated with assay buffer containing 0.3% PEI (Sigma). Non specific binding was measured in the presence of 1 μM propanolol. Incubation was maintained for 60 minutes at room temperature and with gentle shaking. The binding reactions were terminated by filtration and washing with 2.5 volumes of Tris/HCl 50 mM pH=7.4. The affinity of each test compound to the receptor was determined by using ten different concentrations ran in duplicate. IC50s were calculated using Activity Base software from IDBS and the four parameters-log equation.
# [2] = biological target: human muscarinic M3 receptor (Homo sapiens (Human), UniProt P20309); test: Human muscarinic M3 receptor binding assay ([3H]-NMS, CHO-K1 membranes)
# human muscarinic M3 receptor, sequence (P20309 whole entry): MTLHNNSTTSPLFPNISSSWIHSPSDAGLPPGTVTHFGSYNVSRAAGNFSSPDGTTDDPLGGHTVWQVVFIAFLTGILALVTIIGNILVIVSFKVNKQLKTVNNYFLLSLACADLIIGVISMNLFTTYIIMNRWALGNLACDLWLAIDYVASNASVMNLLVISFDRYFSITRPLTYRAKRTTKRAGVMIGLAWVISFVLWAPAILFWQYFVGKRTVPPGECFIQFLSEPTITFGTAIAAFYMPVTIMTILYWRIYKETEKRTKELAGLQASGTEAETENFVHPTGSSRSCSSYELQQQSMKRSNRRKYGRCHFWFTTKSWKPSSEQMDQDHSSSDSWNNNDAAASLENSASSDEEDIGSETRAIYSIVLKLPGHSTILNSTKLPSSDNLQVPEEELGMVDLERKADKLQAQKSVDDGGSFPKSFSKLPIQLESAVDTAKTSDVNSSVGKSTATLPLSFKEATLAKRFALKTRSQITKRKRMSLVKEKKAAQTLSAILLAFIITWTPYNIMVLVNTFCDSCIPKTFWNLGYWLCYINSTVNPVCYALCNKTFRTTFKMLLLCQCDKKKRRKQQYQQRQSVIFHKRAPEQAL
# Procedure: Test 2: Human Muscarinic M1, M2, M3, M4 and M5Receptors Binding Assays
# The study of binding to human muscarinic M1, M2, M3, M4 and M5 receptors was performed using commercial membranes (Perkin Elmer) prepared from CHO-K1 cells. Radioligand binding experiments were conducted in 96 polypropylene well plates in a total volume of 200 μl. All reagents were dissolved in assay binding buffer (PBS with calcium and magnesium, SIGMA), except compounds that were dissolved in DMSO 100%. Non-specific binding (NSB) was measured in the presence of 1 μM atropine. [3H]-NMS was used as the radioligand at a concentration of 1 nM for M2, M3 and M5 and 0.3 nM for M1 and M4. [3H]-NMS and antagonists were incubated with membranes that express human muscarinic receptors M1, M2, M3, M4 and M5 at concentrations of 8.1, 10, 4.9, 4.5 and 4.9 μg/well, respectively.
# After an incubation period of two hours with gentle shaking, 150 μl of the reaction mix were transferred to 96 GF/C filter plates (Millipore), previously treated with wash buffer (Tris 50 mM; NaCl 100 mM; pH: 7.4), containing 0.05% PEI (Sigma) during one hour. Bound and free [3H]-NMS were separated by rapid vacuum filtration in a manifold from Millipore and washed four times with ice cold wash buffer. After drying 30 min, 30 μl of OPTIPHASE Supermix were added to each well and radioactivity quantified using a Microbeta microplate scintillation counter.
# The affinity of each test compound to the receptors was determined by using ten different concentrations ran in duplicate. IC50s were calculated using Activity Base software from IDBS and the four parameters-log equation.
# [3] = 3H-CGP12177 displacement, read-out: Binding IC50, nM β2
# [4] = [3H]-NMS displacement, read-out: Binding IC50, nM M3
# human adrenergic beta2 receptor, sequence (P07550 whole entry): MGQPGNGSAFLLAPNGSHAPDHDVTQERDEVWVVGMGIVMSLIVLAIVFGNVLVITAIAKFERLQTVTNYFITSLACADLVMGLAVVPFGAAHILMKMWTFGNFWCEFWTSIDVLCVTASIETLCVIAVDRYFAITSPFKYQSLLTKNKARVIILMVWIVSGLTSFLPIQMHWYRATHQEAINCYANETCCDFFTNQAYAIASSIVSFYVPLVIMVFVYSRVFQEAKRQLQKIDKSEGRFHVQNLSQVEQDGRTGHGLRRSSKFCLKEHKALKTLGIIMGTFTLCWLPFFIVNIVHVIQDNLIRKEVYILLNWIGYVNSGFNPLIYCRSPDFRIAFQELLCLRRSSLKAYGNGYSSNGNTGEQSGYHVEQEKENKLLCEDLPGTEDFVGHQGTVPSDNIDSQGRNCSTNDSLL
Compound,"IC50 [1, 3] [nM]","IC50 [2, 4] [nM]","IC50 ([1]; read-out: Binding IC50, nM β2, 3H-CGP12177 displacement) [nM]","IC50 ([2]; read-out: Binding IC50, nM M3, [3H]-NMS displacement) [nM]"
"COc1cc(OCCCCN(C)[C@H]2CC[C@H](OC(=O)C(O)(c3cccs3)c3cccs3)CC2)c(Cl)cc1CNC[C@H](O)c1ccc(O)c2[nH]c(=O)ccc12 [Example 25, trans-4-[{4-[2-chloro-4-({[(2R)-2-hydroxy-2-(8-hydroxy-2-oxo-1,2-dihydroquinolin-5-yl)ethyl]amino}methyl)-5-methoxyphenoxy]butyl}(methyl)amino]cyclohexyl hydroxy(di-2-thienyl)acetate hydrofluoride (1:2)]",9.6,0.3,,
"COc1cc(NC(=O)CCN(C)[C@H]2CC[C@H](OC(=O)C(O)(c3cccs3)c3cccs3)CC2)c(F)cc1CNC[C@H](O)c1ccc(O)c2[nH]c(=O)ccc12 [Example 16, trans-4-[(3-{[2-fluoro-4-({[(2R)-2-hydroxy-2-(8-hydroxy-2-oxo-1,2-dihydroquinolin-5-yl)ethyl]amino}methyl)-5-methoxyphenyl]amino}-3-oxopropyl)(methyl)amino]-cyclohexyl hydroxy(di-2-thienyl)acetate]",4.8,2,,
"CN(CCC(=O)Nc1cc(F)c(CNC[C@H](O)c2ccc(O)c3[nH]c(=O)ccc23)cc1F)[C@H]1CC[C@H](OC(=O)C(O)(c2cccs2)c2cccs2)CC1 [Example 18, trans-4-[(3-{[2,5-difluoro-4-({[(2R)-2-hydroxy-2-(8-hydroxy-2-oxo-1,2-dihydroquinolin-5-yl)ethyl]amino}methyl)phenyl]amino}-3-oxopropyl)-(methyl)amino]cyclohexyl hydroxy(di-2-thienyl)acetate hydrofluoride (1:2)]",13,1.6,,
"COc1cc(NC(=O)OCCN(C)[C@H]2CC[C@H](OC(=O)C(O)(c3cccs3)c3cccs3)CC2)c(C#N)cc1CNC[C@H](O)c1ccc(O)c2[nH]c(=O)ccc12 [Example 22, trans-4-[{2-[({[2-cyano-4-({[(2R)-2-hydroxy-2-(8-hydroxy-2-oxo-1,2-dihydroquinolin-5-yl)ethyl]amino}methyl)-5-methoxyphenyl]amino}carbonyl)-oxy]ethyl}(methyl)amino]cyclohexyl hydroxy(di-2-thienyl)acetate hydrofluoride (1:2)]",4.5,1.4,,
"COc1cc(NC(=O)OCCN(C)[C@H]2CC[C@H](OC(=O)C(O)(c3cccs3)c3cccs3)CC2)c(Cl)cc1CNC[C@H](O)c1ccc(O)c2c1OCC(=O)N2 [Example 26, trans-4-[{2-[({[2-chloro-4-({[(2R)-2-hydroxy-2-(5-hydroxy-3-oxo-3,4-dihydro-2H-1,4-benzoxazin-8-yl)ethyl]amino}methyl)-5-methoxyphenyl]amino}carbonyl)-oxy]ethyl}(methyl)amino]cyclohexyl hydroxy(di-2-thienyl)acetate]",0.38,1.7,,
"COc1cc(NC(=O)OCCN(C)[C@H]2CC[C@H](OC(=O)C(O)(c3cccs3)c3cccs3)CC2)c(Cl)cc1CNC[C@H](O)c1ccc(O)c2[nH]c(=O)ccc12 [Example 12, trans-4-[{2-[({[2-chloro-4-({[(2R)-2-hydroxy-2-(8-hydroxy-2-oxo-1,2-dihydroquinolin-5-yl)ethyl]amino}methyl)-5-methoxyphenyl]amino}carbonyl)oxy]ethyl}-(methyl)amino]cyclohexyl hydroxy(di-2-thienyl)acetate hydrofluoride]",1.6,1.6,,
"COc1cc(NC(=O)CCN(C)[C@H]2CC[C@H](OC(=O)C(O)(c3cccs3)c3cccs3)CC2)c(Cl)cc1CCNC[C@H](O)c1ccc(O)c2[nH]c(=O)ccc12 [Example 20, trans-4-[(3-{[2-chloro-4-(2-{[(2R)-2-hydroxy-2-(8-hydroxy-2-oxo-1,2-dihydroquinolin-5-yl)ethyl]amino}ethyl)-5-methoxyphenyl]amino}-3-oxopropyl)-(methyl)amino]cyclohexyl hydroxy(di-2-thienyl)acetate hydrofluoride (1:2)]",5.3,0.7,,
"COc1cc(NC(=O)CCN(C)[C@H]2CC[C@](C)(OC(=O)C(O)(c3cccs3)c3cccs3)CC2)c(Cl)cc1CNC[C@H](O)c1ccc(O)c2[nH]c(=O)ccc12 [Example 13, trans-4-[(3-{[2-chloro-4-({[(2R)-2-hydroxy-2-(8-hydroxy-2-oxo-1,2-dihydroquinolin-5-yl)ethyl]amino}methyl)-5-methoxyphenyl]amino}-3-oxopropyl)(methyl)amino]-1-methylcyclohexyl hydroxy(di-2-thienyl)acetate]",2.2,2.1,,
"CN(CCCCCCCCCNC[C@H](O)c1ccc(O)c2[nH]c(=O)ccc12)C1CCC(OC(=O)C(O)(c2cccs2)c2cccs2)CC1 (stereo partly drawn) [Example 1, trans-4-[(9-{[(2R)-2-hydroxy-2-(8-hydroxy-2-oxo-1,2-dihydroquinolin-5-yl)ethyl]-amino}nonyl)(methyl)amino]cyclohexyl hydroxy(di-2-thienyl)acetate formiate (2:1)]",,,6.4,0.2
"COc1cc(NC(=O)OCCN(C)[C@H]2CC[C@H](OC(=O)[C@](O)(c3cccs3)C3CCCC3)CC2)c(Cl)cc1CNC[C@H](O)c1ccc(O)c2[nH]c(=O)ccc12 [Example 29, trans-4-[{2-[({[2-chloro-4-({[(2R)-2-hydroxy-2-(8-hydroxy-2-oxo-1,2-dihydroquinolin-5-yl)ethyl]amino}methyl)-5-methoxyphenyl]amino}carbonyl)-oxy]ethyl}(methyl)amino]cyclohexyl (2S)-cyclopentyl(hydroxy)-2-thienylacetate]",1.1,3.8,,
"COc1cc(NC(=O)OCCN(C)[C@H]2CC[C@H](OC(=O)[C@](O)(c3ccccc3)C3CCCC3)CC2)c(Cl)cc1CNC[C@H](O)c1ccc(O)c2[nH]c(=O)ccc12 [Example 28, trans-4-[{2-[({[2-chloro-4-({[(2R)-2-hydroxy-2-(8-hydroxy-2-oxo-1,2-dihydroquinolin-5-yl)ethyl]amino}methyl)-5-methoxyphenyl]amino}carbonyl)oxy]ethyl}-(methyl)amino]cyclohexyl (2R)-cyclopentyl (hydroxy)phenylacetate]",1.3,8.5,,
